Publication PMC11292009, “Mapping protein binding sites by photoreactive fragment pharmacophores” (Communications Chemistry, 2024)

Experiments:
Assay type in all cases: binding
[1] = system: carbonic anhydrase II (CA); experiment: Intact protein MS photoaffinity labeling screen, carbonic anhydrase; details: intact protein MS after 10 min irradiation
Description: (§1) Using a plate-based format with one fragment per well, each fragment was incubated with the target proteins for 15 min to allow for the formation of non-covalent interactions. […] Finally, the results were directly analyzed from the plate using intact protein mass spectrometry by observing the mass additions that correspond to successful labeling (Fig. 2c, for labeling % values see Supplementary data). The library was first characterized against three benchmark proteins like carbonic anhydrase (CA), lysozyme (Lyo), and myoglobin (Myo).

BRD4-BD1 = system: T1, BRD4-BD1; experiment: Intact MS photoaffinity labeling screen, BRD4-BD1 (302 nm, LCMS-TOF); details: for MS labeling percentage, BRD4: BRD4-BD1, 302 nm 10 min; for experimental hit status BRD4-BD1: 0/1 flag
T1 construct: screened the PhP library against the first bromodomain of BRD4 (BRD4-BD1); purchased GSK/GenScript
Description: as §1
(§2) The PhP library was screened against BRD4-BD1 and KRas^G12D as follows. […] The probe plate was placed on ice. 15 μL of protein stock solution (1 μM BRD4-BD1 (GSK/GenScript) or KRas^G12D (GSK/GenScript) in PBS buffer) was dispensed into wells containing fragments. The plate was left on ice for 15 min for incubation, then irradiated at 302 nm for 10 min, and centrifuged (1000 rpm, 1 min) to remove any bubbles. […] The deconvoluted spectra were analyzed using R Studio software.

KRas^G12D = system: T2, KRas^G12D; experiment: Intact MS photoaffinity labeling screen, KRas G12D (302 nm, LCMS-TOF); details: for MS labeling percentage, KRas: KRas G12D, 302 nm 10 min; for experimental hit status KRAS-G12D: 0/1 flag
T2 construct: purchased GSK/GenScript
Description: as §1, §2

lysozyme (Lyo) = experiment: Intact protein MS photoaffinity labeling screen, lysozyme; details: intact protein MS after 10 min irradiation
Description: as §1

myoglobin (Myo) = experiment: Intact protein MS photoaffinity labeling screen, myoglobin; details: intact protein MS after 10 min irradiation
Description: as §1

STAT5B-NTD [2] = system: T3, STAT5B-NTD; experiment: Intact MS photoaffinity labeling screen, STAT5B-NTD (365 nm, UHPLC-MS); details: for MS labeling percentage, STAT5B: STAT5B-NTD, 365 nm 10 min, no photocatalyst; for experimental hit status STAT5B-NTD: 0/1 flag;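 for MS labeling percentage, STAT5B: 0.17 µL of 100 mM DMSO fragment stock added to the protein sample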
T3 construct: His-SUMO (N, cleaved yes); made in house; host or cells: E. coli BL21 RILP
Description: STAT5B protein in 7 µM concentration in pH 7.4 PBS buffer was pre-incubated with 0.17 µL PhP (in 100 mM DMSO solution) for 1 h at room temperature in dark. Irradiation was carried out at 4 °C for 10 min using 365 nm UV lamp.
(§3) During the analysis, the column temperature was maintained at a constant 60 °C, and a sample volume of 3 µL was injected for each analysis. Data acquisition was conducted in positive ion mode within the m/z 100–2000 (mass-to-charge ratio) range. For the full protocol and spectra of the hits, see Supplementary Note 2.

STAT5B-NTD [3] = system: T3, STAT5B-NTD; experiment: Intact MS labeling screen, STAT5B-NTD conjugated with photocatalyst Ir-G2-PEG3-COOH (450 nm); details: 450 nm 10 min;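 note: 0.14 µL of 100 mM DMSO fragment stock added to the conjugate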
Description: For the photocatalysis experiments, 1.4 µL photocatalyst (in 1.4 mM DMSO solution, 10 eq) was pre-incubated with 1.5 µL coupling reagent (0.75 µL, 5.6 mM EDC (20 eq)+0.75 µL 4.2 mM NHS and 1.5 µL 2.1 mM (15 eq) BOP for 30 min in dark. 30 µL STAT5B-NTD (in 7 µM concentration) was added and incubated further at room temperature overnight or at 37 °C for 1 h in dark. After addition of 0.14 µL PhP (in 100 mM DMSO) the solution was further incubated in dark for 1 h. Irradiation was carried out using 450 nm LED lamp (7.6Vx0A) for 10 min at 4 °C.
as §3

[4] = hit flag 1/0, sheet PhP, photoaffinity labeling screen
[5] = sheet PhP, experimental hit status flag given as 0 or 1
[6] = PhP library sheet "PhP", binary flag printed as 0 or 1, key not given

| Structure (SMILES) | MS labeling percentage, CA [1] | MS labeling percentage, BRD4 (BRD4-BD1) | BRD4-BD1 (experimental hit status) (BRD4-BD1; [4]) | MS labeling percentage, KRas (KRas^G12D) | KRAS-G12D (experimental hit status) (KRas^G12D; [4]) | MS labeling percentage, Lyo (lysozyme (Lyo)) | MS labeling percentage, Myo (myoglobin (Myo)) | MS labeling percentage, STAT5B (STAT5B-NTD [2]) | STAT5B-NTD (experimental hit status) (STAT5B-NTD [2]; [4]) | MS labeling percentage, STAT5B+photocat (STAT5B-NTD [3]) | experimental hit status BRD4-BD1 (BRD4-BD1) | experimental hit status KRAS-G12D (KRas^G12D) | experimental hit status STAT5B-NTD (STAT5B-NTD [2]) | BRD4-BD1 (experimental hit status) (BRD4-BD1; [5]) | KRAS-G12D (experimental hit status) (KRas^G12D; [5]) | STAT5B-NTD (experimental hit status) (STAT5B-NTD [2]; [5]) | BRD4-BD1 (experimental hit status) (BRD4-BD1; [6]) | KRAS-G12D (experimental hit status) (KRas^G12D; [6]) | STAT5B-NTD (experimental hit status) (STAT5B-NTD [2]; [6]) |
| --- | --- | --- | --- | --- | --- | --- | --- | --- | --- | --- | --- | --- | --- | --- | --- | --- | --- | --- | --- |
| CC1(CCC(=O)NCc2ccc(-c3cncnc3)cc2)N=N1 [PhP052, N1=NC1(C)CCC(=O)NCc2ccc(cc2)-c3cncnc3] | 1.2% | 1.5% | 0 | 1.3% | 0 | 0% | 1.3% | 1% | 0 | 11.4% |  |  |  |  |  |  |  |  |  |
| CC1(CCC(=O)NCc2c(O)ccc3ccccc23)N=N1 [PhP057, N1=NC1(C)CCC(=O)NCc(c(O)cc2)c(c23)cccc3] | 0.4% | 1.6% | 0 | 1.1% | 0 | 2.2% | 0.7% | 0% | 0 | 3.4% |  |  |  |  |  |  |  |  |  |
| CC1(CCC(=O)NC2CCCN(c3ncc[nH]c3=O)C2)N=N1 (centres unmarked) [PhP029, N1=NC1(C)CCC(=O)NC2CCCN(C2)c3ncc[nH]c3=O] | 0% | 0.2% |  | 0% |  | 0% | 0.1% | 0% |  | 0.3% | 0 | 0 | 0 |  |  |  |  |  |  |
| Cn1c(CCNC(=O)CCC2(C)N=N2)nc2ccccc21 [PhP020, c1cccc(c12)n(C)c(n2)CCNC(=O)CCC3(C)N=N3] | 0.2% | 0.4% |  | 0% |  | 0% | 0.3% | 0% |  | 0.6% | 0 | 0 | 0 |  |  |  |  |  |  |
| CC1(CCC(=O)NCc2ccccc2O)N=N1 [PhP028, N1=NC1(C)CCC(=O)NCc2ccccc2O] | 0% | 57% |  | 0.4% |  | 0% | 0.2% | 1% |  | 0.3% | 0 | 0 | 0 |  |  |  |  |  |  |
| CC1(CCC(=O)NCc2ccc(-n3ccnc3)cc2)N=N1 [PhP033, N1=NC1(C)CCC(=O)NCc2ccc(cc2)-n3ccnc3] | 0.5% | 1.1% |  | 0.5% |  | 0% | 0.3% | 1% |  | 0.3% | 0 | 0 | 0 |  |  |  |  |  |  |
| Cc1ccc(C(NC(=O)CCC2(C)N=N2)c2ccccn2)cc1 (centres unmarked) [PhP026, n1ccccc1C(c(cc2)ccc2C)NC(=O)CCC3(C)N=N3] | 0.4% | 0.4% |  | 0.3% |  | 0.4% | 0.2% | 1% |  | 5% | 0 | 0 | 0 |  |  |  |  |  |  |

Continued, in another order:

| MS labeling percentage, CA [1] | Structure (SMILES) | MS labeling percentage, BRD4 (BRD4-BD1) | BRD4-BD1 (experimental hit status) (BRD4-BD1; [4]) | MS labeling percentage, KRas (KRas^G12D) | KRAS-G12D (experimental hit status) (KRas^G12D; [4]) | MS labeling percentage, Lyo (lysozyme (Lyo)) | MS labeling percentage, Myo (myoglobin (Myo)) | MS labeling percentage, STAT5B (STAT5B-NTD [2]) | STAT5B-NTD (experimental hit status) (STAT5B-NTD [2]; [4]) | MS labeling percentage, STAT5B+photocat (STAT5B-NTD [3]) | experimental hit status BRD4-BD1 (BRD4-BD1) | experimental hit status KRAS-G12D (KRas^G12D) | experimental hit status STAT5B-NTD (STAT5B-NTD [2]) | BRD4-BD1 (experimental hit status) (BRD4-BD1; [5]) | KRAS-G12D (experimental hit status) (KRas^G12D; [5]) | STAT5B-NTD (experimental hit status) (STAT5B-NTD [2]; [5]) | BRD4-BD1 (experimental hit status) (BRD4-BD1; [6]) | KRAS-G12D (experimental hit status) (KRas^G12D; [6]) | STAT5B-NTD (experimental hit status) (STAT5B-NTD [2]; [6]) |
| --- | --- | --- | --- | --- | --- | --- | --- | --- | --- | --- | --- | --- | --- | --- | --- | --- | --- | --- | --- |
| 0.7% | COc1cc(C)nc(NC(=O)CCC2(C)N=N2)n1 [PhP074, COc1cc(C)nc(n1)NC(=O)CCC2(C)N=N2] | 0.4% |  | 0.4% |  | 0% | 0.4% | 1% |  | 1.8% |  |  |  | 0 | 0 | 0 |  |  |  |
| 0.1% | CCc1cc(NC(=O)CCC2(C)N=N2)nc(C)n1 [PhP076, CCc1cc(nc(n1)C)NC(=O)CCC2(C)N=N2] | 0.9% |  | 0.2% |  | 0% | 0.2% | 2% |  | 3.2% |  |  |  | 0 | 0 | 0 |  |  |  |
| 0% | CC1(CCC(=O)N[C@@H](Cc2ccc(O)cc2)C(N)=O)N=N1 [PhP058, N1=NC1(C)CCC(=O)N[C@H](C(=O)N)Cc2ccc(O)cc2] | 0.4% |  | 0% |  | 1.2% | 0.1% | 1% |  | 0.5% |  |  |  | 0 | 0 | 0 |  |  |  |
| 0.4% | CC1CN(Cc2ccccc2NC(=O)CCC2(C)N=N2)CC(C)O1 (centres unmarked) [PhP078, CC1CN(CC(O1)C)Cc2ccccc2NC(=O)CCC3(C)N=N3] | 0.4% |  | 0% |  | 0% | 0.2% | 0% |  | 0.7% |  |  |  |  |  |  | 0 | 0 | 0 |
| 0.3% | Cn1cnnc1CCNC(=O)CCC1(C)N=N1 [PhP063, Cn1cnnc1CCNC(=O)CCC2(C)N=N2] | 49.7% |  | 0.8% |  | 0% | 0.3% | 0% |  | 0.4% |  |  |  | 0 | 0 | 0 |  |  |  |
| 0.4% | CC1(CCC(=O)NC2CCc3[nH]cnc3C2)N=N1 (centres unmarked) [PhP085, N1=NC1(C)CCC(=O)NC(CC2)Cc(c23)nc[nH]3] | 0.3% |  | 0.3% |  | 0% | 0.1% | 1% |  | 1.2% |  |  |  |  |  |  | 0 | 0 | 0 |
| 0.3% | CC1(CCC(=O)NCCCc2nc[nH]n2)N=N1 [PhP066, N1=NC1(C)CCC(=O)NCCCc2nc[nH]n2] | 0.3% |  | 0.2% |  | 0% | 0.3% | 0% |  | 0% |  |  |  | 0 | 0 | 0 |  |  |  |
